In patent US12616753B2, “HSP70 inhibitors and methods of using same” (THE WISTAR INSTITUTE, priority 2020, dated 2026):

Legend:
MC38 cells = test: Membrane associated calreticulin analysis by flow cytometry; format: cell-based, mouse; settings: 24 hours
Experimental: FIG. 6D: MC38 cells were treated with 5 μM AP-4-139B for 24 hours and subjected to flow cytometry, using Alexa488-tagged calreticulin antibody. *** p<0.001, n=4 biological replicates performed in duplicate. FIG. 6E: MC38 cells were treated with increasing concentrations of AP-4-139B, G-TPP, 17-AAG or Metformin for 3 hours and then assayed for extracellular ATP release. Three independent cultures were assayed for each treatment, and DMSO-treated cells were used as internal controls. Error bars represent standard deviation (SD).
Flow cytometry was used to detect calreticulin localization after exposure to Doxorubicin (positive control) or AP-4-139B. MC38 cells were plated at a density of 3×10^5 cells per well in 6-well plates. The following day, cells were treated with 1 μM of doxorubicin, 15 μM of AP-4-139B (MC38), or 5 μM of AP-4-139B (CT26). After 24 hours, cells were collected and stained with anti-CRT antibody (ab196158) (Abcam) diluted in a solution of 1% FBS in PBS for 30 minutes on ice in the dark. Cells were then washed with PBS and stained with DAPI (1 μg/mL) for 5 minutes prior to analysis. Samples were analyzed using a FACSCelesta (Becton Dickinson) flow cytometer. […] Fluorescent intensity of DAPI negative cells was measured and at least 10,000 events in the analysis gate were obtained.

WM983B tumor xenografts = test: WM983B melanoma xenograft in NSG mice; format: in vivo, mouse; settings: 12.5 mg/kg i.p. twice per week
Experimental: WM983B tumor xenografts were established in NSG mice. […] Tumors were collected at the end of the experiment and assessed for the level of the client protein MRPS14.
FIG. 18 comprises a series of images illustrating IHC of WM983B treated tumors using IgG negative control or antisera to MRPS14t.
AP-4-139B was tested as a single agent in a WM983B melanoma xenograph in mice. WM983B tumor xenografts were established in NSG mice. […] Tumors were collected at the end of the experiment and assessed for the level of the client protein MRPS14.

c1ccc(-c2cn3nc(CCCCCC[P+](c4ccccc4)(c4ccccc4)c4ccccc4)sc3n2)cc1 [AP-4-139B, Triphenyl(6-(6-phenylimidazo[2,1-b][1,3,4]thiadiazol-2-yl)hexyl)phosphonium bromide]
calreticulin mobilization to the plasma membrane (MC38 cells): calreticulin mobilization to the plasma membrane | level of client protein MRPS14 in tumors (IHC) (WM983B tumor xenografts): lose mitochondrial protein MPS14 | tumor growth, WM983B xenograft (WM983B tumor xenografts): inhibit tumor growth
